Source: patent US20250092058A1 (priority 2018, published 2025)
Like-named read-outs stand apart in the source and are kept apart here. One block for each molecule: values may come before it.

How the values were obtained:
FaDu = test: MTT assay FaDu; format: cell-based; conditions: Table 5 lower part; FaDu head-and-neck cancer
Protocol: (§1) MTT assays. […] Viable cells (2500 cells per well) were plated in each well in 96-well plates. After an overnight incubation, cells were treated with and without relevant drugs alone and in combination, respectively, at various concentrations and incubated for 72 hours. MTT, a colorimetric substrate, was added to a final concentration of 0.4 mg/ml to each well. Cells in 96-well plates were further incubated in a 5% CO2 incubator at 37° C. for 4 hours, and then the medium was aspirated. The MTT metabolic product formazan was solubilized by adding 200 ul of DMSO to each well. Absorbance in the relevant wells was measured at 570 nm using an Ultra Microplate Reader (Bio-Tek Instruments). Each experiment was performed at least in triplicate. IC50/EC50 values were calculated from a series of drug dose ranges for each analyzed compound, using GraphPad Prism 6 (GraphPad Software, Inc., La Jolla, CA).
(§2) The inhibition of cell growth and viability in various cancer cell types were tested using MTT assay for references.

A2008 = test: MTT assay A2008; format: cell-based
Protocol: as §1, §2

PDX14244 and PDX27454 = test: Pancreatic PDX14244 (left flank) and colorectal PDX27454 (right flank) in the same SCID mice; format: in vivo; conditions: oral weekly for 4 times
Protocol: Human xenograft tumors used.
The vehicle is the same aqueous suspension without FL7N-1. Experimental SCID mice were subcutaneously implanted with 30-40 mg individual PDX tumors (isolated from maintenance mice) at the flank area (left side for PDX14244, and right side for PDX27454) of SCID mice. […] The animal model of PDX tumors was orally treated weekly for 3 times as shown with black arrows. […] Thus, FL7N-1 may be a priority candidate to be developed for treatment of children rare disease retinoblastoma.
(§3) The vehicle is the same think aqueous suspension without drug. Experimental SCID mice were subcutaneously implanted with 30-40 mg individual PDX tumors (isolated from maintenance mice) at the flank area (left side for PDX14244, and right side for PDX27454) of SCID mice. […] The animal model of PDX tumors was orally treated weekly for 3 times as shown with black arrows.
as §3, with “for 4” for “for 3”, “times (one cycle/course,” for “times”, “black arrows).” for “black arrows.”
as §3, with “times in two doses due to drug limitation then (as” for “times as”, “black arrows).” for “black arrows.”

HT-3 = test: MTT assay HT-3; format: cell-based, human; conditions: Table 5 lower part
Protocol: as §1, §2

T24 = test: MTT assay T24; format: cell-based; conditions: Table 5 lower part; T24 bladder cancer
Protocol: as §1, §2

H1376 = system: H1376
Protocol: as §1, §2

UMUC-3 = system: UMUC-3
Protocol: as §1, §2

RT4 = test: MTT assay RT4; format: cell-based; conditions: Table 5 lower part; RT4 bladder cancer
Protocol: as §1, §2

HepG2 = format: cell-based, human
A549 [1] = format: cell-based, human
HeLa = format: cell-based, human
[2] = system: HepG2, A549, HeLa, HCT116; conditions: four cell lines, in words
HCT116 = format: cell-based, human
HCT116 cells = test: ROS production, DCFH-DA probe; format: cell-based, human; conditions: 5-100 nM vs vehicle control
Source text: Under the influence of pro-apoptotic signals, the elevation of reactive oxygen species (ROS) may serve as a secondary messenger to upregulate the expression of pro-apoptotic proteins, thereby inducing cellular apoptosis.

UOK151 = system: UOK151
Protocol: as §1, §2

UOK262 = system: UOK262
Protocol: as §1, §2

SW620 xenograft tumors = conditions: oral weekly for 1-2 times
Source text: Human xenograft tumors used. In this invention disclose, human SW620 (colorectal), HT29 (colorectal) and HT-3 (retinoblastoma) cancer cell line-established xenograft tumors were used. Human tumor cell line-derived xenograft tumors are initially established by subcutaneously injecting 2-5×10^6 cultured cancer cells in a volume of 100-150 p L medium into the flank area of severe combined immunodeficiency (SCID) mice. The derived tumors are then passed a couple of generations in mice by transplanting 30-50 mg non-necrotic tumor mass via a trocar for experiments or maintenance. […] PDX tumors were originally established on severe Combined Immunodeficiency (SCID) mice from pancreatic and colorectal cancer patient tumor tissues obtained from metastatic sites of the disease in the clinic.
Human SW620 xenograft tumors were initially established by subcutaneously injection of 2-5×10^6 SW620 cells in a volume of 100-150 μL medium. Mouse models of SW620 xenografts were set up by subcutaneously inoculating 30-40 mg tumor tissue (isolated from tumor maintenance SCID mice) on the flank of SCID mice. Treatment with individual compounds was initiated 7-14 days after the transplanted tumors reached 100-200 mm^3 (designated day 0). The treatment schedule is weekly for 1-2 times in a series of dose levels based on the available drug amounts then. The individual compounds were formulated in an organic solvent-free with HPβCD in 2% HPMC (hydroxypropyl methylcellulose) and 1% PG (propylene glycol) in saline (a thick aqueous suspension) for oral administration. The vehicle is the same thick aqueous suspension without drug.

A549 [3] = test: MTT assay A549; format: cell-based, human; conditions: Table 9
Protocol: MTT assays. […] Each experiment was performed at least in triplicate.

A2780CP70-GFPcODC cells = test: GFPcODC drug-resistant cell tracking, A2780CP; format: cell-based, human; conditions: 10 μM, 72 h
Source text: (§4) Generation of A2780-GFPcODC, A2780CP-GFPcODC and PANC1GFPcODC cells and fluorescence microscopy to detect stem-like and drug resistant green cells. The retroviral expression vector pQCXIN-ZsGreen-cODC (ornithine decarboxylase), containing a green fluorescence marker, was kindly provided by Dr. Frank Pajonk (Vlashi E, et al., In vivo imaging, tracking, and targeting of cancer stem cells. J Natl Cancer Inst. 2009; 101: 350-9). The retroviral particles collected from packaging cells that transfected with the above vector were infected into A2780, A2780CP and PANC1 cells, respectively. The transfected cell pool was used for experiments. The transfected cells were treated with and without cisplatin or FL118 alone or in combination for defined times. Cell images were acquired digitally using the Olympus IX73 Inverted Score s (Olympus). Percentages of living cells were obtained from the average of the total cells counted from 10 microscopic fields.
To test this, we used a novel approach developed in Dr. Pajonk's lab for the live tracking of drug resistant cells (Vlashi E, et al., In vivo imaging, tracking, and targeting of cancer stem cells. J Natl Cancer Inst. 2009; 101: 350-9). This approach takes advantage of reduced 26S proteasome activity of drug resistant cells. […]

PANC1-GFPcODC cells = test: Trypan blue exclusion, PANC1-GFPcODC cells; format: cell-based, human; conditions: 4-day treatment
Source text: as §4, with “The transfected cells were treated with and without cisplatin or FL118 alone or in combination for defined times.” left out
Next, we applied the same system to generate pancreatic cancer PANC1-GFPcODC cells.

[4] = Table 5 lower part, A2008 ovarian cancer
[5] = Table 5 lower part, H1376 bladder cancer
[6] = Table 5 lower part, UMUC-3 bladder cancer

Compound: CCc1ccc(-c2c3c(nc4cc5c(cc24)OCO5)-c2cc4c(c(=O)n2C3)COC(=O)[C@]4(O)CC)cc1 [7Q 6]
IC50/EC50 (FaDu): 0.85 nM
IC50/EC50 (A2008; [4]): 1.34 nM
antitumor activity, 7Q-series (1) (PDX14244 and PDX27454): much higher antitumor activity than the other compounds in this 7Q-series (1)
IC50/EC50 (HT-3; HT-3): 3.11 nM
IC50/EC50 (T24): 0.19 nM
IC50/EC50 (H1376; [5]): 386 nM
IC50/EC50 (UMUC-3; [6]): 0.4 nM
IC50/EC50 (RT4): 1.51 nM

Compound: CC[C@@]1(O)C(=O)OCc2c1cc1n(c2=O)Cc2c-1nc1cc3c(cc1c2-c1cc(OC)cc(OC)c1)OCO3 [7Q 24]
IC50/EC50 (FaDu): 0.68 nM
IC50/EC50 (A2008; [4]): 1.95 nM
antitumor activity, 7Q-series (1) (PDX14244 and PDX27454): much higher antitumor activity than the other compounds in this 7Q-series (1)
IC50/EC50 (HT-3; HT-3): 3.59 nM
IC50/EC50 (T24): 0.08 nM
IC50/EC50 (H1376; [5]): 246 nM
IC50/EC50 (UMUC-3; [6]): 0.21 nM
IC50/EC50 (RT4): 1.44 nM

Compound: CC[C@@]1(O)C(=O)OCc2c1cc1n(c2=O)Cc2c-1nc1cc3c(cc1c2-c1ccc(F)cc1)OCO3 [Compound 7b]
IC50 (HepG2): 46.3 ± 5.4 nM
IC50 (A549 [1]): 19.8 ± 2.9 nM
IC50 (HeLa): 11.1 ± 6.7 nM
cytotoxic / anti-proliferation ability [2]: good anti-proliferation ability in all four cell lines
IC50 (HCT116): 32.7 ± 3.3 nM

Compound: CC[C@@]1(O)C(=O)OCc2c1cc1n(c2=O)Cc2c-1nc1cc3c(cc1c2-c1ccc(F)c(OC)c1)OCO3 [Compound 7h]
ROS production (HCT116 cells): significantly increased

IC50/EC50 (T24): 37.2 nM
IC50/EC50 (H1376; [5]): >500 nM
IC50/EC50 (H1376; Table 8, H1376): >500 nM
IC50/EC50 (UMUC-3; [6]): 52.8 nM
IC50/EC50 (UMUC-3; Table 8, UMUC-3): 52.8 nM
IC50/EC50 (UOK151; Table 5 lower part, UOK151 kidney cancer): >200 nM
IC50/EC50 (UOK151; Table 8, UOK151): >200 nM
IC50/EC50 (UOK151; Table 10, UOK151): >200 nM
IC50/EC50 (UOK262; Table 5 lower part, UOK262 kidney cancer): >200 nM
IC50/EC50 (UOK262; Table 8, UOK262): >200 nM
IC50/EC50 (UOK262; Table 10, UOK262): >200 nM
Compound: CC[C@@]1(O)C(=O)OCc2c1cc1n(c2=O)Cc2cc3c(CN(C)C)c(O)ccc3nc2-1 [Topotecan, reference compound]
IC50/EC50 (FaDu): 26.63 nM
IC50/EC50 (A2008; [4]): 46.1 nM
IC50/EC50 (HT-3; HT-3 cervical carcinoma): 83.42 nM
IC50/EC50 (RT4): 96.4 nM

Compound: CC[C@@]1(O)C(=O)OCc2c1cc1n(c2=O)Cc2c-1nc1cc3c(cc1c2-c1ccoc1)OCO3 [W-b3]
antitumor activity (SW620 xenograft tumors): much higher antitumor activity than the other compounds in this Wb-series
IC50/EC50 (A2008; Table 9, A2008): 16.15 nM
IC50/EC50 (A549 [3]): 0.92 nM

Compound: CC[C@@]1(O)C(=O)OCc2c1cc1n(c2=O)Cc2c-1nc1cc3c(cc1c2-c1cccs1)OCO3 [W-b6]
antitumor activity (SW620 xenograft tumors): much higher antitumor activity than the other compounds in this Wb-series
IC50/EC50 (A2008; Table 9, A2008): 11.1 nM
IC50/EC50 (A549 [3]): 1.2 nM

Compound: N.N.[Cl][Pt][Cl] [cisplatin]
total cell population killed (A2780CP70-GFPcODC cells): 90%
GFP-negative (drug sensitive) PANC1 cells killed (PANC1-GFPcODC cells; 50 μM): 92%
cell death (PANC1-GFPcODC cells; 20 μM cisplatin, 10 nM FL118, or both): ~18%
